Where “and” joins values, the source holds several entries; their conditions need not be identical. Equal entries are not always repeated. Where two headings read alike, the source gives them in different places.
Experiments:
[1] = biological target: T1, recombinant Leishmania cysteine protease LmCPB2.8ΔCTE (CPB) (Leishmania mexicana, UniProt P36400); assay: Enzymatic inhibition of recombinant CPB (Z-FR-AMC substrate); type: biochemical
T1 construct: The ORF that codes for the Leishmania mexicana CPB, lacking the C terminal extension (CPB2.8ΔCTE); made in house; host or cells: Pichia pastoris X-33
Method: The concentration of the active recombinant CPB expressed in Pichia pastoris supernatant was determined by active site titration with N-(trans-Epoxysuccinyl)-L-leucine 4-guanidinobutylamide E-64 (CalBiochem) that was found 1 μM. The active enzyme represented about 80% of the total recombinant enzyme.
Compounds were dissolved in DMSO to a final concentration of 20 μM. The assays were performed in dark 96 well-plates, containing 200 μL of 100 mM sodium acetate buffer (pH 5.5), 200 mM NaCl, 0.01% Triton-X100, 2 nM enzyme, various concentrations of inhibitor, and 5 μM of the substrate Z-FR-AMC (Calbiochem). The final concentration of DMSO was 1% (v/v). The enzyme was pre-incubated at 30°C for 2 minutes before the inhibitor was added, waited 2 minutes and after this incubation, the reaction was started by the addition of the substrate, Z-FR-AMC. The fluorescence was monitored at 380 nm excitation and 460 nm emission filters for 2 minutes at 30°C in an Infinite 200 PRO microplate reader (Tecan, Männedorf, Switzerland). The residual activity was measured by the ratio between enzyme + substrate and enzyme + inhibitor + substrate. […] Results were expressed in mean ± standard deviation of two independent replicates using Bioestat Software.

[2] = system: L. infantum intracellular amastigotes; assay: Anti-amastigote activity in infected murine peritoneal macrophages; type: cell-based; settings: Leishmania infantum, Peritoneal macrophage, read-out: EC50 - Effective Concentration that kills 50% of L. infantum amastigote forms
Method: (§1) The antileishmanial activity against L. infantum intracellular amastigotes, according to the following methodology. […] Were used infected macrophages as negative control and amphotericin B as the positive control.
(§2) After incubation, cells were fixed with methanol and Giemsa stained. The effective concentration to 50% amastigotes death (EC) was obtained by counting 100 macrophages in duplicate, in two independent experiments. The values were obtained by non-linear regression on Bioestat® software, and results were expressed in mean ± standard deviation.

[3] = Quantification of nitrite by the Griess reaction (NO release); settings: compounds at 10^-4 M, 5 mM of L-Cys (1:50), 1 h, 37°C
Method: The levels of nitrite resulting from the oxidation of NO in the aqueous medium were quantified through the Griess reaction after incubation with an excess of L-cysteine (1:50) according to previously published methods. The experiments were performed in triplicate and repeated three times on different days. […] The results were expressed as a percentage of nitrite (% NO2^−; mol/mol). Statistical analysis was carried out using ANOVA followed by Tukey’s Multiple Comparison Test at a significance level of p < 0.05.
The ability of all synthesized compounds (4a-x) and (14a-g) to release NO was evaluated by indirect determination of NO2^− production. The compounds at 10^−4 M were incubated for 1 h at 37°C in the presence of L-cysteine (1:50) and the produced NO2^− was determined through Griess reaction (Table 1).

[4] = Anti-amastigote activity in infected murine peritoneal macrophages; type: cell-based, L. infantum; settings: Swiss, mouse; CC50 macrophages / EC50 L. infantum amastigotes; read-out: SI - Selective Index (CC50/EC50)
Method: as §1, §2

T1 sequence (P36400 126-341, stated change not applied): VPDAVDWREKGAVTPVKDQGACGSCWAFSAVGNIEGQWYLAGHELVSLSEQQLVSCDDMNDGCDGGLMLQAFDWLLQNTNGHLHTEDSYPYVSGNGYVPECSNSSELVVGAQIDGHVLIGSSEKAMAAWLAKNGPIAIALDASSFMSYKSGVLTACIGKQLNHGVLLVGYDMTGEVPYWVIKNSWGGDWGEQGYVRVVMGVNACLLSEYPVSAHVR

## O=C(N/N=C/c1ccc2no[n+]([O-])c2c1)c1ccc(O)cc1 [Compound 4v]
[1]
  IC50: > 20 µM
[2]; 24 h
  EC50: > 10 µM

## NC(=O)c1c(COc2ccc(/C=N/NC(=O)c3ccc(N)cc3)cc2)no[n+]1[O-] [Compound 4j, (E)-4-((4-((2-(4-aminobenzoyl)hydrazono)methyl)phenoxy)methyl)-3-carbamoyl-1,2,5-oxadiazole 2-oxide]
[3]
  % NO2- (mol/mol): 12.7 ± 0.8 %
[1]
  IC50: 11.1 ± 0.1 µM
[2]; 24 h
  EC50: > 10 µM
other
  melting point: 209 to 214 °C

## NC(=O)N/N=C/c1ccc(O)cc1 [Compound 14a, (E)-2-(4-hydroxybenzylidene)hydrazine-1-carboxamide]
[1]
  IC50: 2 ± 0.1 µM
[2]; 24 h
  EC50: > 10 µM
other
  melting point: 224 to 226 °C

## NC(=O)c1c(COc2ccc(/C=N/NC(=O)c3ccc([N+](=O)[O-])cc3)cc2)no[n+]1[O-] [Compound 4l, (E)-3-carbamoyl-4-((4-((2-(4-nitrobenzoyl)hydrazono)methyl)phenoxy)methyl)-1,2,5-oxadiazole 2-oxide]
[3]
  % NO2- (mol/mol): 11.8 ± 1.1 %
[1]
  IC50: 10.8 ± 2.3 µM
[2]; 24 h
  EC50: 7.7 ± 2.1 µM

## O=C(N/N=C/c1ccc(Oc2no[n+]([O-])c2-c2ccccc2)cc1)c1ccccc1 [Compound 4a, (E)-4-(4-((2-benzoylhydrazono)methyl)phenoxy)-3-phenyl-1,2,5-oxadiazole 2-oxide]
[3]
  % NO2- (mol/mol): 9.0 ± 0.7 %
[1]
  IC50: 1.5 ± 0.1 µM
[4]
  selectivity ratio at 24 h: > 357
[2]; 24 h
  EC50: 1.4 ± 0.1 µM

## NC(=O)N/N=C/c1ccc(OCc2no[n+]([O-])c2C(N)=O)cc1 [Compound 4n, (E)-3-carbamoyl-4-((4-((2-carbamoylhydrazono)methyl)phenoxy)methyl)-1,2,5-oxadiazole 2-oxide]
[3]
  % NO2- (mol/mol): 12.0 ± 1.4 %
[1]
  IC50: 13.7 ± 1.8 µM
[2]; 24 h
  EC50: > 10 µM
other
  melting point: 228 to 230 °C

## CC(C)(C)c1ccc(C(=O)N/N=C/c2ccc(Oc3no[n+]([O-])c3-c3ccccc3)cc2)cc1 [Compound 4e, (E)-4-(4-((2-(4-(tert-butyl)benzoyl)hydrazono)methyl)phenoxy)-3-phenyl-1,2,5-oxadiazole 2-oxide]
[3]
  % NO2- (mol/mol): 8.8 ± 0.7 %
[1]
  IC50: 0.8 ± 0.1 µM
[4]
  selectivity ratio at 24 h: > 833
[2]; 24 h
  EC50: 0.6 ± 0.1 µM

## O=C(N/N=C/c1ccc2no[n+]([O-])c2c1)c1ccccc1O [Compound 4t]
[1]
  IC50: 4.2 ± 0.2 µM
[2]; 24 h
  EC50: > 10 µM

## CC(C)(C)c1ccc(C(=O)N/N=C/c2ccc(OCc3no[n+]([O-])c3C(N)=O)cc2)cc1 [Compound 4m, (E)-4-((4-((2-(4-(tert-butyl)benzoyl)hydrazono)methyl)phenoxy)methyl)-3-carbamoyl-1,2,5-oxadiazole 2-oxide]
[3]
  % NO2- (mol/mol): 12.5 ± 1.3 %
[1]
  IC50: 6 ± 0.7 µM
[4]
  selectivity ratio at 24 h: > 78
[2]; 24 h
  EC50: 6.4 ± 1.1 µM

## O=C(N/N=C/c1ccc2no[n+]([O-])c2c1)c1cccc(O)c1 [Compound 4u]
[1]
  IC50: 11.7 ± 0.5 µM
[2]; 24 h
  EC50: > 10 µM

## Nc1ccc(C(=O)N/N=C/c2ccc3no[n+]([O-])c3c2)cc1 [Compound 4s]
[1]
  IC50: > 20 µM
[2]; 24 h
  EC50: > 10 µM

## Nc1ccccc1C(=O)N/N=C/c1ccc2no[n+]([O-])c2c1 [Compound 4q]
[1]
  IC50: 14 ± 2 µM
[2]; 24 h
  EC50: > 10 µM

## NC(=S)N/N=C/c1ccc(Oc2no[n+]([O-])c2-c2ccccc2)cc1 [Compound 4g, (E)-4-(4-((2-carbamothioylhydrazono)methyl)phenoxy)-3-phenyl-1,2,5-oxadiazole 2-oxide]
[3]
  % NO2- (mol/mol): 9.0 ± 0.6 %
[1]
  IC50: 6.5 ± 1 µM
[4]
  selectivity ratio at 24 h: > 227
[2]; 24 h
  EC50: 2.2 ± 0.3 µM

## O=C(N/N=C/c1ccc(Oc2no[n+]([O-])c2-c2ccccc2)cc1)c1ccc([N+](=O)[O-])cc1 [Compound 4d, (E)-4-(4-((2-(4-nitrobenzoyl)hydrazono)methyl)phenoxy)-3-phenyl-1,2,5-oxadiazole 2-oxide]
[3]
  % NO2- (mol/mol): 8.6 ± 0.8 %
[1]
  IC50: 1.8 ± 0.1 µM
[4]
  selectivity ratio at 24 h: > 128
[2]; 24 h
  EC50: 3.9 ± 0.4 µM

## NC(=S)N/N=C/c1ccc(O)cc1 [Compound 14b, (E)-2-(4-hydroxybenzylidene)hydrazine-1-carbothioamide]
[1]
  IC50: 11.7 ± 1 µM

## C[C@@H]1[C@H](O)[C@@H](C)/C=C/C=C/C=C/C=C/C=C/C=C/C=C/[C@H](O[C@@H]2O[C@H](C)[C@@H](O)[C@H](N)[C@@H]2O)C[C@@H]2O[C@](O)(C[C@@H](O)C[C@@H](O)[C@H](O)CC[C@@H](O)C[C@@H](O)CC(=O)O[C@H]1C)C[C@H](O)[C@H]2C(=O)O [Amphotericin B, amphotericin B, reference compound]
[3]
  % NO2- (mol/mol): 0%
[4]
  selectivity ratio at 24 h: 12
[2]; 24 h treatment, intracellular amastigotes
  EC50: 1 ± 0.1 µM

## O=C(N/N=C/c1ccc(O)cc1)c1ccc([N+](=O)[O-])cc1 [Compound 14f, (E)-N’-(4-hydroxybenzylidene)-4-nitrobenzohydrazide]
[1]
  IC50: 4 ± 0.1 µM
[2]; 24 h
  EC50: > 10 µM
other
  melting point: 266 to 268 °C

## Nc1ccc(C(=O)N/N=C/c2ccc(Oc3no[n+]([O-])c3-c3ccccc3)cc2)cc1 [Compound 4c, (E)-4-(4-((2-(4-aminobenzoyl)hydrazono)methyl)phenoxy)-3-phenyl-1,2,5-oxadiazole 2-oxide]
[3]
  % NO2- (mol/mol): 9.3 ± 0.8 %
[1]
  IC50: 2 ± 0.1 µM
[4]
  selectivity ratio at 24 h: 17
[2]; 24 h
  EC50: 7.2 ± 0.2 µM

## CC(C)(C)c1ccc(C(=O)N/N=C/c2ccc3no[n+]([O-])c3c2)cc1 [Compound 4x]
[1]; read-out: IC50 - Inhibition of CPB, 2 nM enzyme, 5 μM Z-FR-AMC, pH 5.5, 30°C
  IC50: > 20 µM
[2]; 24 h
  EC50: > 10 µM

## Nc1cccc(C(=O)N/N=C/c2ccc3no[n+]([O-])c3c2)c1 [Compound 4r]
[1]
  IC50: 3.4 ± 0.1 µM
[4]
  selectivity ratio at 24 h: 11
[2]; 24 h
  EC50: 9.5 ± 0.6 µM

## CC(C)(C)c1ccc(C(=O)N/N=C/c2ccc(O)cc2)cc1 [Compound 14g, (E)-4-(tert-butyl)-N’-(4-hydroxybenzylidene)benzohydrazide]
[1]
  IC50: 7.6 ± 2.1 µM
[2]; 24 h
  EC50: > 10 µM

## O=C(N/N=C/c1ccc(O)cc1)c1ccc(O)cc1 [Compound 14d, (E)-4-hydroxy-N’-(4-hydroxybenzylidene)benzohydrazide]
[1]
  IC50: 2 ± 0.1 µM
[2]; 24 h
  EC50: > 10 µM

## NC(=O)c1c(COc2ccc(/C=N/NC(=O)c3ccccc3)cc2)no[n+]1[O-] [Compound 4h, (E)-4-((4-((2-benzoylhydrazono)methyl)phenoxy)methyl)-3-carbamoyl-1,2,5-oxadiazole 2-oxide]
[3]
  % NO2- (mol/mol): 12.1 ± 1.2 %
[1]
  IC50: 8.8 ± 0.2 µM
[4]
  selectivity ratio at 24 h: > 161
[2]; 24 h
  EC50: 3.1 ± 0.2 µM

## Nc1ccc(C(=O)N/N=C/c2ccc(O)cc2)cc1 [Compound 14e, (E)-4-amino-N’-(4-hydroxybenzylidene)benzohydrazide]
[1]
  IC50: 1.2 ± 0.1 µM
[2]; 24 h
  EC50: > 10 µM
other
  melting point: 275 to 276 °C

## O=C(N/N=C/c1ccc(Oc2no[n+]([O-])c2-c2ccccc2)cc1)c1ccc(O)cc1 [Compound 4b, (E)-4-(4-((2-(4-hydroxybenzoyl)hydrazono)methyl)phenoxy)-3-phenyl-1,2,5-oxadiazole 2-oxide]
[3]
  % NO2- (mol/mol): 8.8 ± 0.6 %
[1]
  IC50: 3.2 ± 0.3 µM
[4]
  selectivity ratio at 24 h: 54
[2]; 24 h
  EC50: 3.1 ± 0.2 µM

## O=C(N/N=C/c1ccc(O)cc1)c1ccccc1 [Compound 14c, (E)-N’-(4-hydroxybenzylidene)benzohydrazide]
[1]
  IC50: 2 ± 0.3 µM
[2]; 24 h
  EC50: > 10 µM
other
  melting point: 244 to 245 °C

## O=C(N/N=C/c1ccc2no[n+]([O-])c2c1)c1ccccc1 [Compound 4p]
[1]
  IC50: > 20 µM
[2]; 24 h
  EC50: > 10 µM

## O=[N+]([O-])O[C@H]1CO[C@H]2[C@@H]1OC[C@H]2O[N+](=O)[O-] [DNS, isosorbide dinitrate, reference compound]
[3]
  % NO2- (mol/mol): 10.5% and 10.5 ± 0.9 ^*^a %

— paper PMC8559926, “Design, synthesis and biological evaluation of N-oxide derivatives with potent in vivo antileishmanial activity” (PLoS ONE, 2021)
